pIC50: −log10 of the molar value.
Tests used:
Test in all cases: Dose response of growth, tumor cell line
Type in all cases: cell-based
[1] = system: HT29; conditions: Homo sapiens, HT-29, HT29, colon cancer
Experimental: (§1) Indeed, 70% of the cell lines were shown not only to experience precluded growth, but cell death, when exposed to less then 100 μM of the active ingredient.

[2] = system: SNB-78; conditions: Homo sapiens, SNB-78, CNS cancer
Experimental: as §1

[3] = system: NCI-H23; conditions: Homo sapiens, NCI-H23, non-small cell lung cancer
Experimental: as §1

[4] = system: UO-31; conditions: Homo sapiens, UO-31, renal cancer
Experimental: as §1

[5] = system: SK-MEL-2; conditions: Homo sapiens, SK-MEL-2, melanoma
Experimental: as §1

[6] = system: RPMT-8226; conditions: Homo sapiens, RPMT-8226, leukemia
Experimental: as §1

[7] = system: SNB-75; conditions: Homo sapiens, SNB-75, CNS cancer
Experimental: as §1

[8] = system: DMS 114; conditions: Homo sapiens, DMS 114, small cell lung cancer
Experimental: as §1

[9] = system: MCF7/ADR-RES; conditions: Homo sapiens, miscellaneous
Experimental: as §1

[10] = system: SK-OV-3; conditions: Homo sapiens, SK-OV-3, ovarian cancer
Experimental: as §1

[11] = system: SK-MEL-28; conditions: Homo sapiens, SK-MEL-28, melanoma
Experimental: as §1

[12] = system: DLD-A; conditions: Homo sapiens, colon cancer
Experimental: as §1

[13] = system: MALME-3M; conditions: Homo sapiens, melanoma
Experimental: as §1

[14] = system: XF 498; conditions: Homo sapiens, XF498, XF 498, CNS cancer
Experimental: as §1

[15] = system: SF-268; conditions: Homo sapiens, SF-268, CNS cancer
Experimental: as §1

[16] = system: NCI-H522; conditions: Homo sapiens, NCI-H522, non-small cell lung cancer
Experimental: as §1

[17] = system: OVCAR-4; conditions: Homo sapiens, OVCAR-4, ovarian cancer
Experimental: as §1

[18] = system: COLO 205; conditions: Homo sapiens, COLO 205, colon cancer
Experimental: as §1

[19] = system: SW-620; conditions: Homo sapiens, SW-620, colon cancer
Experimental: as §1

[20] = system: CCRF-CEM; conditions: Homo sapiens, leukemia
Experimental: as §1

[21] = system: MCF7; conditions: Homo sapiens, MCF7, miscellaneous
Experimental: as §1

[22] = system: HOP-18; conditions: Homo sapiens, HOP-18, non-small cell lung cancer
Experimental: as §1

[23] = system: A549/ATCC; conditions: Homo sapiens, non-small cell lung cancer
Experimental: as §1

[24] = system: SF-539; conditions: Homo sapiens, SF-539, CNS cancer
Experimental: as §1

[25] = system: NCI-H322M; conditions: Homo sapiens, non-small cell lung cancer
Experimental: as §1

[26] = read-out: 50% Growth (Relative to Control)
[27] = read-out: No Growth (Relative to Control)

Molecule ClCc1ccc2ccc3ccc(CCl)nc3c2n1 [2,9-bis(chloromethyl)-1,10-phenanthroline] has a pIC50 [1, 26] of 5.88, a CC50 ([1]; read-out: 50% Loss (50% kill)) of 5.48 µM and an IC100 [1, 27] of 2.68 µM. It also gave a pIC50 [2, 26] of 5.64, a CC50 ([2]; read-out: 50% Loss (50% kill)) of over 100 µM and an IC100 [2, 27] of 6.4 µM. It also gave a pIC50 [3, 26] of 5.73, a CC50 ([3]; read-out: 50% Loss (50% kill)) of 7.24 µM and an IC100 [3, 27] of 3.68 µM. For the same molecule, the pIC50 [4, 26] was 5.77, the CC50 ([4]; read-out: 50% Loss (50% kill)) was 6.08 µM and the IC100 [4, 27] was 3.21 µM. It also gave a pIC50 [5, 26] of 5.75, a CC50 ([5]; read-out: 50% Loss (50% kill)) of 16.6 µM and an IC100 [5, 27] of 4.81 µM. The pIC50 [6, 26] was 5.90, the CC50 ([6]; read-out: 50% Loss (50% kill)) was over 100 µM and the IC100 [6, 27] was 36.6 µM. For the same molecule, the pIC50 [7, 26] was 5.76, the CC50 ([7]; read-out: 50% Loss (50% kill)) was 15.5 µM and the IC100 [7, 27] was 4.53 µM. It also gave a pIC50 [8, 26] of 5.79, an IC100 [8, 27] of 3.53 µM and a pIC50 [9, 26] of 5.71. It also gave a CC50 ([9]; read-out: 50% Loss (50% kill)) of over 100 µM, an IC100 [9, 27] of 4.48 µM and a pIC50 [10, 26] of 5.05. For the same molecule, the CC50 ([10]; read-out: 50% Loss (50% kill)) was over 10 µM, the IC100 [10, 27] was over 10 µM and the pIC50 [11, 26] was 5.87. For the same molecule, the CC50 ([11]; read-out: 50% Loss (50% kill)) was 6.5 µM, the IC100 [11, 27] was 2.97 µM and the pIC50 [12, 26] was 5.83. For the same molecule, the CC50 ([12]; read-out: 50% Loss (50% kill)) was 5.72 µM, the IC100 [12, 27] was 2.91 µM and the pIC50 [13, 26] was 5.72. For the same molecule, the CC50 ([13]; read-out: 50% Loss (50% kill)) was 6.16 µM, the IC100 [13, 27] was 3.41 µM and the pIC50 [14, 26] was 5.76. For the same molecule, the CC50 ([14]; read-out: 50% Loss (50% kill)) was over 100 µM, the IC100 [14, 27] was 5.63 µM and the pIC50 [15, 26] was 5.75. The IC100 [15, 27] was 3.74 µM, the pIC50 [16, 26] was 5.75 and the CC50 ([16]; read-out: 50% Loss (50% kill)) was 6.71 µM. It also gave an IC100 [16, 27] of 3.44 µM, a pIC50 [17, 26] of 5.50 and a CC50 ([17]; read-out: 50% Loss (50% kill)) of 34.9 µM. For the same molecule, the IC100 [17, 27] was 9.37 µM, the pIC50 [18, 26] was 5.81 and the CC50 ([18]; read-out: 50% Loss (50% kill)) was 5.54 µM. It also gave an IC100 [18, 27] of 2.94 µM, a pIC50 [19, 26] of 5.50 and a CC50 ([19]; read-out: 50% Loss (50% kill)) of over 100 µM. The IC100 [19, 27] was 14.1 µM, the pIC50 [20, 26] was 5.74 and the CC50 ([20]; read-out: 50% Loss (50% kill)) was over 100 µM. For the same molecule, the IC100 [20, 27] was 8.64 µM, the pIC50 [21, 26] was 6.25 and the CC50 ([21]; read-out: 50% Loss (50% kill)) was 8.88 µM. The IC100 [21, 27] was 2.48 µM, the pIC50 [22, 26] was 5.52 and the CC50 ([22]; read-out: 50% Loss (50% kill)) was 31.2 µM. It also gave an IC100 [22, 27] of 9.71 µM, a pIC50 [23, 26] of 5.29 and a CC50 ([23]; read-out: 50% Loss (50% kill)) of over 100 µM. For the same molecule, the IC100 [23, 27] was over 100 µM, the pIC50 [24, 26] was 5.52 and the CC50 ([24]; read-out: 50% Loss (50% kill)) was 41.8 µM. For the same molecule, the IC100 [24, 27] was 11.2 µM, the pIC50 [25, 26] was 5.55 and the CC50 ([25]; read-out: 50% Loss (50% kill)) was 29.2 µM. The IC100 [25, 27] was 8.41 µM.

— patent US5545639A, “Method of inhibiting transformed cells” (The United States of America as represented by the …, priority 1994, dated 1996)
